What is called KD is the constant that tells how readily two partners part at equilibrium. High values mean weaker binding, low ones tighter binding.

We go through 1 compound from publication PMC10313827 (2023).

The test concerns RhoBAST (RNA, aptamer) GGAACCUCCGCGAAAGCGGUGAAGGAGAGGCGCAAGGUUAACCGCCUCAGGUUCC
Description: fluorescence titration, fixed dye, aptamer varied. Particulars: 125 mM KCl, 1 mM MgCl2; 20 mM HEPES pH 7.4, 0.05% Tween 20, 25 °C, 10 nM dye.

Structures are written as SMILES.

Compound `CN(C)S(=O)(=O)N1C(=O)c2ccccc2C12c1ccc(N3CCC3)cc1Oc1cc(N3CCC3)ccc12` returned a dissociation constant (KD) of 100 ± 8 nM. That is a sub-micromolar value.
